Data taken from the supplement of paper PMC10307832.

Each cell line was assayed with CN(C)C(=N)NC(=N)N [Metformin] + CCNC(=O)c1noc(-c2cc(C(C)C)c(O)cc2O)c1-c1ccc(CN2CCOCC2)cc1 [Luminespib] (partner 0.01 µM) (assay: relative viability (nuclei count vs DMSO), 5 days (fraction); higher = more cells survive). Conditions: first compound 10 µM.
Method in brief: (§1)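 Lung cancer cell lines, seeded in 1536-well plates, were treated the following day by pin tool with a single drug or with five library-drug doses (not always all listed) in √10 steps on top of a fixed anchor-drug dose. Cells were fixed and nuclei stained in one step after 5 days, and nuclei were counted. Relative viability is the nuclei count for treated wells divided by that for vehicle wells, reported as medians of duplicate plates.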

Cell Line	relative viability
NCI-H2347	0.328
NCI-H2405	0.585
NCI-H3122	0.076
PC-3 [JPC-3]	0.686
PC-14	0.373
RERF-LC-KJ	1.11
SK-LU-1	0.204
SK-MES-1	0.83
SW 900	0.152
SW 1573	0.266
UMC-11	1.1

Same assay, conditions: first compound 31.62 µM

Cell Line	relative viability
NCI-H2347	1.03
NCI-H2405	0.581
NCI-H3122	0.0878
PC-3 [JPC-3]	0.68
PC-14	0.18
RERF-LC-KJ	1.15
SK-LU-1	0.204
SK-MES-1	0.889
SW 900	0.177
SW 1573	0.255
UMC-11	1.14

Same assay, conditions: first compound 100 µM

Cell Line	relative viability
NCI-H2405	0.774
NCI-H3122	0.0846
PC-3 [JPC-3]	0.73
PC-14	0.202
RERF-LC-KJ	0.979
SK-LU-1	0.221
SK-MES-1	0.95
SW 900	0.179
SW 1573	0.51
UMC-11	1.08

Same assay, conditions: first compound 316.23 µM

Cell Line	relative viability
NCI-H2347	0.537
NCI-H2405	0.664
NCI-H3122	0.0862
PC-3 [JPC-3]	0.663
PC-14	0.289
RERF-LC-KJ	0.808
SK-LU-1	0.204
SK-MES-1	0.747
SW 900	0.192
SW 1573	0.157
UMC-11	1.1

Same assay, conditions: first compound 1000 µM

Cell Line	relative viability
NCI-H2347	0.791
NCI-H2405	0.737
NCI-H3122	0.113
PC-3 [JPC-3]	0.74
PC-14	0.502
RERF-LC-KJ	0.864
SK-LU-1	0.244
SK-MES-1	0.744
SW 900	0.214
SW 1573	0.153
UMC-11	0.994

Each cell line was assayed with CN(C)C(=N)NC(=N)N [Metformin] + Cc1nc(Nc2ncc(C(=O)Nc3c(C)cccc3Cl)s2)cc(N2CCN(CCO)CC2)n1 [Dasatinib] (partner 0.075 µM) in the same assay as above. Conditions: first compound 10 µM.
Method in brief: as §1

Cell Line	relative viability
NCI-H2347	0.336
NCI-H2405	0.272
NCI-H3122	0.509
PC-3 [JPC-3]	0.944
PC-14	0.337
RERF-LC-KJ	0.689
SK-LU-1	0.171
SK-MES-1	0.252
SW 900	0.844
SW 1573	0.589
UMC-11	0.528

Same assay, conditions: first compound 31.62 µM

Cell Line	relative viability
NCI-H2347	0.369
NCI-H2405	0.265
NCI-H3122	0.879
PC-3 [JPC-3]	0.889
PC-14	0.285
RERF-LC-KJ	0.709
SK-LU-1	0.192
SK-MES-1	0.41
SW 900	0.989
SW 1573	0.833
UMC-11	0.482

Same assay, conditions: first compound 100 µM

Cell Line	relative viability
NCI-H2405	0.253
NCI-H3122	0.897
PC-3 [JPC-3]	0.979
PC-14	0.253
RERF-LC-KJ	0.613
SK-LU-1	0.174
SK-MES-1	0.338
SW 900	0.73
SW 1573	0.708
UMC-11	0.546

Same assay, conditions: first compound 316.23 µM

Cell Line	relative viability
NCI-H2347	0.307
NCI-H2405	0.272
NCI-H3122	0.666
PC-3 [JPC-3]	0.886
PC-14	0.235
RERF-LC-KJ	0.462
SK-LU-1	0.17
SK-MES-1	0.314
SW 900	0.825
SW 1573	0.425
UMC-11	0.447

Same assay, conditions: first compound 1000 µM

Cell Line	relative viability
NCI-H2347	0.354
NCI-H2405	0.255
NCI-H3122	0.896
PC-3 [JPC-3]	0.986
PC-14	0.233
RERF-LC-KJ	0.534
SK-LU-1	0.177
SK-MES-1	0.321
SW 900	0.766
SW 1573	0.551
UMC-11	0.45

What follows are cell lines tested with CN(C)C(=N)NC(=N)N [Metformin] + O=C(CCCCCCC(=O)Nc1ccccc1)NO [Vorinostat] (partner 1 µM) in the same assay as above. Conditions: first compound 10 µM.
Method in brief: as §1

Cell Line	relative viability
NCI-H2347	0.602
NCI-H3122	0.459
PC-3 [JPC-3]	0.737
PC-14	0.618
RERF-LC-KJ	0.564
SK-LU-1	0.723
SK-MES-1	0.839
SW 900	0.548
SW 1573	0.724
UMC-11	0.471

Same assay, conditions: first compound 31.62 µM

Cell Line	relative viability
NCI-H2347	0.619
NCI-H2405	0.991
NCI-H3122	0.942
PC-3 [JPC-3]	0.664
PC-14	0.598
RERF-LC-KJ	0.745
SK-LU-1	0.645
SK-MES-1	1.03
SW 900	0.765
SW 1573	0.722
UMC-11	0.452

Same assay, conditions: first compound 100 µM

Cell Line	relative viability
NCI-H2347	0.71
NCI-H2405	1.03
NCI-H3122	0.87
PC-14	0.567
RERF-LC-KJ	0.634
SK-LU-1	0.759
SK-MES-1	1.11
SW 1573	0.68
UMC-11	0.483

Same assay, conditions: first compound 316.23 µM

Cell Line	relative viability
NCI-H2347	0.575
NCI-H2405	1.02
NCI-H3122	0.807
PC-3 [JPC-3]	0.85
PC-14	0.415
RERF-LC-KJ	0.534
SK-LU-1	0.667
SK-MES-1	0.919
SW 900	0.457
SW 1573	0.701
UMC-11	0.377

Same assay, conditions: first compound 1000 µM

Cell Line	relative viability
NCI-H2347	0.599
NCI-H2405	0.587
NCI-H3122	0.775
PC-3 [JPC-3]	0.554
PC-14	0.533
RERF-LC-KJ	0.612
SK-LU-1	0.766
SK-MES-1	0.99
SW 900	0.682
SW 1573	0.755
UMC-11	0.406

Each cell line was assayed with N#CC1(c2ccc(NC(=O)c3cccnc3NCc3ccncc3)cc2)CCCC1 [Apatinib] + Cc1cc(Nc2cc(N3CCN(C)CC3)nc(Sc3ccc(NC(=O)C4CC4)cc3)n2)n[nH]1 [Tozasertib] (partner 0.1 µM) in the same assay as above. Conditions: first compound 0.08 µM.
Method in brief: as §1

Cell Line	relative viability
NCI-H2347	0.504
NCI-H2405	0.911
NCI-H3122	0.551
PC-3 [JPC-3]	0.904
PC-14	0.7
RERF-LC-KJ	0.538
SK-LU-1	0.337
SK-MES-1	0.972
SW 900	0.504
SW 1573	0.165
UMC-11	0.193

Same assay, conditions: first compound 0.253 µM

Cell Line	relative viability
NCI-H2347	0.651
NCI-H2405	0.759
NCI-H3122	0.368
PC-3 [JPC-3]	0.871
PC-14	0.65
RERF-LC-KJ	0.428
SK-LU-1	0.436
SK-MES-1	0.928
SW 900	0.54
SW 1573	0.196
UMC-11	0.194

Same assay, conditions: first compound 0.8 µM

Cell Line	relative viability
NCI-H2347	0.604
NCI-H2405	0.685
NCI-H3122	0.432
PC-3 [JPC-3]	0.78
PC-14	0.536
RERF-LC-KJ	0.393
SK-LU-1	0.28
SK-MES-1	0.729
SW 900	0.442
SW 1573	0.193
UMC-11	0.198

Same assay, conditions: first compound 2.53 µM

Cell Line	relative viability
NCI-H2347	0.428
NCI-H2405	0.607
NCI-H3122	0.374
PC-3 [JPC-3]	0.814
PC-14	0.562
RERF-LC-KJ	0.326
SK-LU-1	0.275
SK-MES-1	0.77
SW 900	0.323
SW 1573	0.185
UMC-11	0.211

Same assay, conditions: first compound 8 µM

Cell Line	relative viability
NCI-H2347	0.466
NCI-H2405	0.604
NCI-H3122	0.367
PC-3 [JPC-3]	0.681
PC-14	0.493
RERF-LC-KJ	0.293
SK-LU-1	0.243
SK-MES-1	0.484
SW 900	0.2
SW 1573	0.183
UMC-11	0.198
